In paper PMC5355960, “Specific inhibition of CK2α from an anchor outside the active site” (Chemical Science, 2016):
Read-outs that look alike come from different tables or passages of the source.

What was measured:
PIM1 [1] = settings: read-out: IC50 PIM1; ref J.Med. Chem. (2011) 54:2:635; cited from earlier work
CLK1 = settings: read-out: IC50 CLK1; ref PLOS ONE (2014) 9:4; cited from earlier work
PIM1 [2] = settings: read-out: IC50 PIM1; ref Biorg. Med. Chem. Lett. (2011) 21;22;6687; cited from earlier work
TBK1 = settings: read-out: IC50 TBK1; ref J.Med. Chem. (2011) 54:2:635; cited from earlier work
A549 cells [3] = settings: 72 hours
A549 cells [4] = experiment: cells; settings: Homo sapiens, A549, 72 h
HCT116 cells [5] = settings: 72 hours
Jurkat cells [6] = experiment: cells; settings: Homo sapiens, 72 h
CK2α [7] = settings: read-out: IC50 CK2α; ref J.Med. Chem. (2011) 54:2:635; cited from earlier work
FLT3 = settings: read-out: IC50 FLT3; ref J.Med. Chem. (2011) 54:2:635; cited from earlier work
PIM2 = settings: read-out: IC50 PIM2; ref Biorg. Med. Chem. Lett. (2011) 21;22;6687; cited from earlier work
DAPK3 = settings: read-out: IC50 DAPK3; ref J.Med. Chem. (2011) 54:2:635; cited from earlier work
HCT116 cells [8] = experiment: cells; settings: Homo sapiens, HCT-116, 72 h
HIPK3 = settings: read-out: IC50 HIPK3; ref J.Med. Chem. (2011) 54:2:635; cited from earlier work
CDK2/Cyclin E = settings: read-out: IC50 CDK2/Cyclin E; ref Eur. J. Med. Chem. (2014) 78:217-224; cited from earlier work
238 kinases = settings: cited from earlier work
Jurkat cells [9] = settings: 72 hours
CLK3 [10] = settings: read-out: IC50 CLK3; ref J.Med. Chem. (2011) 54:2:635; cited from earlier work
CDK1/Cyclin B = settings: read-out: IC50 CDK1/Cyclin B; ref J.Med. Chem. (2011) 54:2:635; cited from earlier work
CLK3 [11] = settings: read-out: IC50 CLK3; ref PLOS ONE (2014) 9:4; cited from earlier work
[12] = test system: HCT116, Jurkat and A549 cells; settings: A549 vs IC50 (for pro-CAM4066: IC50 of CAM4066)
CK2α [13] = molecular target: CK2α (Homo sapiens, UniProt P68400); settings: for ΔH / ΔS: ITC
CK2α, sequence (P68400 2-329): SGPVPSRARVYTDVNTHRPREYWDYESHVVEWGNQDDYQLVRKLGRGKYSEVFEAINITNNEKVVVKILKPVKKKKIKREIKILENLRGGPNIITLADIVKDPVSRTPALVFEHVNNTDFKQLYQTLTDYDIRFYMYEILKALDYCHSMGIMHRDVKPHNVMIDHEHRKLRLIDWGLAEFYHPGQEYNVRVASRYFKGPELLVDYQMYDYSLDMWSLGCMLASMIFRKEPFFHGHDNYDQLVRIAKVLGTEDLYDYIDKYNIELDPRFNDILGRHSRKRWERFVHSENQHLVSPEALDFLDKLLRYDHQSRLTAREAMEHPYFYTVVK

102 kinases = settings: cited from earlier work
[14] = HCT116, 2 × GI50, all time points (24, 48, 72 hours)

## O=C(O)c1ccc2c(c1)nc(Nc1cccc(Cl)c1)c1ccncc12 [CX4945]
PIM1 [1]
  IC50: 46 nM
CLK1
  IC50: 82 nM
PIM1 [2]
  IC50: 48 nM
AKT1 phosphoserine 129; [14]
  inhibition of the phosphorylation of AKT1 Ser129: very clear inhibition
TBK1
  IC50: 35 nM
A549 cells [3]
  GI50: 16.6 µM
A549 cells [4]
  GI50: 17 µM
HCT116 cells [5]
  GI50: 5 µM
Cdc37 phosphoserine 13; HCT116, 2 × GI50, 24 hours
  inhibition of the phosphorylation of CDC37 Ser13: reduced inhibition
Cdc37 phosphoserine 13; [14]
  inhibition of the phosphorylation of CDC37 Ser13: very clear inhibition
Jurkat cells [6]
  GI50: 5 µM
CK2α [7]
  IC50: […]
FLT3
  IC50: 55 nM
PIM2
  IC50: 186 nM
DAPK3
  IC50: 17 nM
HCT116 cells [8]
  GI50: 4.8 µM
HIPK3
  IC50: 45 nM
CDK2/Cyclin E
  IC50: 1800 nM
238 kinases; 0.5 μM, screen size 238 kinases
  number of other kinases inhibited by 70% or greater: 26
238 kinases
  number of other kinases inhibited with nanomolar IC50 values: at least twelve
238 kinases; larger literature panel
  Gini coefficient: […]
Jurkat cells [9]
  GI50: 4.7 µM
CLK3 [10]
  IC50: 41 nM
CDK1/Cyclin B
  IC50: 56 nM
CLK3 [11]
  IC50: 90 nM

## COC(=O)c1cccc(NC(=O)CCNC(=O)CCNCc2ccc(-c3ccccc3)c(Cl)c2)c1 [pro-CAM4066]
AKT1 phosphoserine 129; HCT116, 2 × GI50, 24 hours
  inhibition of the phosphorylation of AKT1 Ser129: approximately 50%
A549 cells [3]; listed as 8
  GI50: 20.2 µM
A549 cells [4]
  GI50: 20 µM
HCT116 cells [5]
  GI50: 8.8 µM
Cdc37 phosphoserine 13; HCT116, 2 × GI50, 48 and 72 hours
  inhibition of the phosphorylation of CDC37 Ser13: the inhibition did increase
Cdc37 phosphoserine 13; HCT116, 2 × GI50, 24 hours
  inhibition of the phosphorylation of CDC37 Ser13: no inhibition
[12]
  drop-off in the GI50 compared to the IC50: 19-60 fold
Jurkat cells [6]
  GI50: 6 µM
HCT116 cells [8]
  GI50: 9 µM
Jurkat cells [9]; listed as 8
  GI50: 6.3 µM

## Cc1ccc(O)c(C(=O)O)c1 [compound 5]
CK2α [13]
  ΔH: -7722 cal/mol
  ΔS: -6.51 cal/mol/deg

## CCCOc1ccc(CN)cc1Cl.Cl [compound 3]
CK2α [13]
  ΔH: -5047 cal/mol
  ΔS: -2.28 cal/mol/deg

## Nc1cccc(C(=O)O)c1 [compound 6]
CK2α [13]
  detectable binding by ITC: no inhibition of phosphorylation at 500 μM or detectable binding by ITC

## O=C(O)c1ccc2c(c1)nc(Nc1cccc(C(F)(F)F)c1)c1nc(NC3CC3)ncc12 [CX5279]
102 kinases; 0.5 μM, 102 kinases
  number of other kinases inhibited by 70% or greater: 4
102 kinases; larger literature panel
  Gini coefficient: 0.755
